The values below come from US12221432B2, “Estrogen receptor antagonist” (CHIA TAI TIANQING PHARMACEUTICAL GROUP CO., LTD., priority 2018, dated 2025).

SMILES strings stand for the structures.

One series relates to MCF-7 cells. The experiment in a line: MCF-7 cell proliferation inhibition. It is filed as cell-based. The following applies: 6 days incubation, CellTiter-Glo; read-out: IC50 for MCF-7 cell proliferation inhibition. The procedure:
EMEM medium was purchased from Wisent, and fetal bovine serum was purchased from Biosera. Promega CellTiter-Glo reagent. MCF-7 cells were purchased from the Cell Bank of Type Culture Collection Committee of the Chinese Academy of Sciences. Nivo5 multi-marker analyzer (PerkinElmer).
MCF-7 cells were seeded in a white 384-well plate at 600 cells/[…] suspension/well. The plate was incubated in a CO2 incubator overnight.
On the day of treatment, a day 0 plate coated under the same conditions the day before was taken, centrifuged to remove the medium, added with 25 microliters of Promega CellTiter-Glo reagent to each well, and incubated at room temperature for 10 minutes to stabilize the luminescence signal. Measures were read by PerkinElmer Nivo multi-marker analyzer as an initial value for 0% inhibition.
The test compounds were serially 5-fold diluted to the 10th concentration with a multichannel pipette, i.e., from 2 millimoles to […], and the experiments were set up in duplicate. 47.5 microliters of medium was added to the intermediate plate, 2.5 microliters of serially diluted compounds were transferred to corresponding wells of the intermediate plate, and after mixing, 5 microliters of the mixture per well was transferred to the cell plate. The plate was incubated in a CO2 incubator for 6 days.
After 6 days of co-incubation with the compounds, the plate was centrifuged to remove the medium, added with 25 microliters of Promega CellTiter-Glo reagent to each well, and incubated at room temperature for 10 minutes to stabilize the luminescence signal. Measures were read by PerkinElmer Nivo multi-marker analyzer.
The original data was converted into inhibition rate by the formula: % inhibition=((RFUCmpd−AVER(RFUNeg.Ctrl))/((AVER(RFUDay0)−AVER(RFUNeg.Ctrl))×100%. Curve fitting was conducted and IC50 was calculated.
(In ATP-based viability assays light output follows the ATP content of the culture.)

For the next series, the system named is uterine growth. Description: Uterine wet weight inhibition in immature rats. It is filed as in vivo, female immature rats. The following applies: oral, three consecutive days. The procedure: This study was intended to evaluate the uterine growth inhibition of compounds of the present application in female immature rats aged 18-21 days (provided by Beijing Vital River Laboratory Animal Technology Co., Ltd., with the number of test animals in each experimental group being 5). In this study, 18-day-old female immature rats were given oral doses of 10 mg/kg of the compound of the present application and 0.1 mg/kg of estradiol for three consecutive days, the control group was given oral doses of 0.1 mg/kg of estradiol for three consecutive days, and the blank group was given no drugs except the corresponding vehicle. Three days after the administration, the rats were sacrificed, and the uteruses of the rats were weighed to observe the effect of the test compound on the uterine growth inhibition in rats. Inhibition rate=100*[(VehicleEE−Cpd)/(VehicleEE−Vehicle)], wherein VehicleEE is uterine wet weight in the control group (oral doses of 0.1 mg/kg estradiol); Cpd is the uterine wet weight of the treatment group; Vehicle is the uterine wet weight of rats in the blank group.

For another series, the system named is breast cancer. To be noted: intramuscular injection, breast cancer patients; cited from earlier work.
For series [1] the following is noted: cited from earlier work.

`CC/C(=C(/c1ccc(OCCNC/C=C/C(=O)N(C)C)nc1)c1[nH]c2ccccc2c1Cl)c1ccc(F)cc1Cl` [Compound 1]: in the series on MCF-7 cells, the IC50 came out at 1.41 nM. Further, in the series on uterine growth (10 mg/kg + estradiol 0.1 mg/kg), the Inhibition rate is 75% and the Uterine wet weight is 0.0672 g.
In the series on uterine growth (estradiol alone (control group)), `C[C@]12CC[C@@H]3c4ccc(O)cc4CC[C@H]3[C@@H]1CC[C@@H]2O` [Estradiol, estradiol, reference compound] had a Uterine wet weight of 0.1200 g.
In the case of `C[C@]12CC[C@@H]3c4ccc(O)cc4C[C@@H](CCCCCCCCC[S+]([O-])CCCC(F)(F)C(F)(F)F)[C@H]3[C@@H]1CC[C@@H]2O` (stereo partly drawn) [fulvestrant], in the series with breast cancer, the clinical response rate result is listed as “about 50%”. Further, the “bioavailability via oral administration” value in series [1] was “zero”.
